Data on one molecule can be found in patent US12414974B2, “Materials and methods for treating cancer” (priority 2017, dated 2025).

Structures are written as SMILES.

For the test, the system named is GBM39 cells. Kind of test: MV growth kinetics (virus production, titration on Vero cells). The class given is cell-based, human. The protocol:
MV strains and virus propagation. Generation and characterization of MV strains expressing human iodide symporter (MV-NIS), human carcinoembryonic antigen (MV-CEA) and green fluorescent protein (MV-GFP) has been described elsewhere (see, e.g., Dingli et al. 2004 Blood 103:1641-1646; Peng et al. 2002 Cancer Res 62:4656-4662; Duprex et al. 1999 J Virol 73:9568-9575). Viruses were propagated on Vero cells and viral stocks were prepared by repeated freezing-thawing and stored frozen at −80° C. MV titers were determined in tissue culture infectious doses 50% (TCID50) per ml by titration on Vero cells described elsewhere (see, e.g., Iankov et al. 2009 Mol Ther 17:1395-1403). High grade purified viral stocks from supernatant released viruses were prepared as described elsewhere (see, e.g., Langfield et al. 2011 Methods Mol Biol 737:345-366).
MV growth kinetics. Growth kinetics of MV in primary GBM cells was determined by titration on Vero cells for the cell-associated virus at different time points post infection with MV-NIS. Briefly, the 4×10^5 cells were inoculated at a MOI of 0.1 with MV-NIS and incubated in 6-well cell culture plates (Falcon). […] Wells positive for syncytia were counted at 72 hours and virus titers were calculated as described above. […]

Consider `N#CC[C@H](C1CCCC1)n1cc(-c2ncnc3[nH]ccc23)cn1` [Jakafi, Ruxolitinib], for which the “increase of MV-NIS virus production vs control” value (GBM39, 3 μM for 48 hours prior to infection, MV-NIS MOI 0.1, 96 hours) is listed as about 1000 fold. Further, for the setting “GBM39, 3 μM, MV MOI 0.1, virus production 48 hours post-infection”, the “time of addition still sufficient to restore MV production” value was “up to 12 hours post-infection”.
